Results as given in patent publication US20020160986A1, “Compounds having activity as inhibitors of cytochrome P450RAI” (priority 2000, published 2002).

What was measured:
RARγ = target: T1, RARγ (Homo sapiens, UniProt P13631); experiment: chimeric receptor transactivation assay, RARγ; format: cell-based; conditions: value in parentheses
T1 sequence (P13631 185-419 limits assumed): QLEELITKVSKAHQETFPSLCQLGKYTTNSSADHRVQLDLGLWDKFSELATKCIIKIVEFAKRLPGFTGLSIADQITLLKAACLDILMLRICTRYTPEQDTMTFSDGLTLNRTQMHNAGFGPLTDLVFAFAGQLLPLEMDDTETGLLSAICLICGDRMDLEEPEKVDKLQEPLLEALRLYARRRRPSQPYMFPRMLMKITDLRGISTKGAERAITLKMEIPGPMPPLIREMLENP
Excerpt: (§1) Assays described below measure the ability of a compound to bind to, and/or activate various retinoid receptor subtypes. When in these assays a compound binds to a given receptor subtype and activates the transcription of a reporter gene through that subtype, then the compound is considered an agonist of that receptor subtype. […] In the below described assays the ability of the compounds to bind to RAR60 , RAR62 , RARγ, RXR60 , RXR62 , and RXRγ receptors, and the ability or inability of the compounds to activate transcription of a reporter gene through these receptor subtypes can be tested.
(§2) As far as specific assays are concerned, a chimeric receptor transactivation assay which tests for agonist-like activity in the RAR60 , RARβ, and RARγ, receptor subtypes, and which is based on work published by Feigner P. L. and Holm M. (1989) Focus, 112 is described in detail in U.S. Pat. No. 5,455,265. The specification of U.S. Pat. No. 5,455,265 is hereby expressly incorporated by reference. The numeric results obtained with several preferred compounds of this invention in this assay are shown below in Table 1.
(§3) A holoreceptor transactivation assay and a ligand binding assay which measure the antagonist/agonist like activity of the compounds of the invention, or their ability to bind to the several retinoid receptor subtypes, respectively, are described in published PCT Application No. WO WO93/11755 (particularly on pages 30-33 and 37-41) published on Jun. 24, 1993, the specification of which is also incorporated herein by reference. A detailed experimental procedure for holoreceptor transactivations has been described by Heyman et al. Cell 68,397-406, (1992); Allegretto et al. J. Biol. Chem. 268,26625-26633, and Mangelsdorf et al. The Retinoids: Biology, Chemistry and Medicine, pp 319-349, Raven Press Ltd., New York, which are expressly incorporated herein by reference. The results obtained in this assay are expressed in EC50 numbers, as they are also in the chimeric receptor transactivation assay. The results of ligand binding assay are expressed in Kd numbers. (See Cheng et al. Biochemical Pharmacology Vol. 22 pp 3099-3108, expressly incorporated herein by reference.)

RARα [1] = target: T2, RARα (Homo sapiens, UniProt P10276); experiment: chimeric receptor transactivation assay, RARα; format: cell-based; conditions: value in parentheses
T2 sequence (P10276 183-417 limits assumed): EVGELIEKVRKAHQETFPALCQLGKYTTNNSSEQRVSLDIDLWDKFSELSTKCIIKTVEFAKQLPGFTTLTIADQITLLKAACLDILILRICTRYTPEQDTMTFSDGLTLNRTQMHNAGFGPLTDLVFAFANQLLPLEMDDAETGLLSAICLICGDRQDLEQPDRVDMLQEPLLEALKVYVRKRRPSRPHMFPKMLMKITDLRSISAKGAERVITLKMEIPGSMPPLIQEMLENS
Excerpt: as §1, §2, §3

RARβ = target: T3, RARβ (Homo sapiens, UniProt P10826); experiment: chimeric receptor transactivation assay, RARβ; format: cell-based; conditions: value in parentheses
T3 sequence (P10826 183-417 limits assumed): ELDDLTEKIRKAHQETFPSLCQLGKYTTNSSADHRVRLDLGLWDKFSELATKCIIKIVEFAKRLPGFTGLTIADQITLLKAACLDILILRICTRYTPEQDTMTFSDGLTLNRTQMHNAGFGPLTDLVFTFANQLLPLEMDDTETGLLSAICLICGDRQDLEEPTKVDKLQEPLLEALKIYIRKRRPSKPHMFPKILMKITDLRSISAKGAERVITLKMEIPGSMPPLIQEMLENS
Excerpt: as §1
As far as specific assays are concerned, a chimeric receptor transactivation assay which tests for agonist-like activity in the RAR60 , RARβ, and RARγ, receptor subtypes, and which is based on work published by Feigner P. L. and Holm M. (1989) Focus, 112 is described in detail in U.S. Pat. No. 5,455,265. The specification of U.S. Pat. No. 5,455,265 is hereby expressly incorporated by reference.
as §3, with “A detailed experimental procedure for holoreceptor transactivations has been described by Heyman et al. Cell 68,397-406, (1992); Allegretto et al. J. Biol. Chem. 268,26625-26633, and Mangelsdorf et al. The Retinoids: Biology, Chemistry and Medicine, pp 319-349, Raven Press Ltd., New York, which are expressly incorporated herein by reference.” left out

RARα [2] = target: T4, RARα (Homo sapiens, UniProt P10276); experiment: ligand binding assay, RARα; conditions: read-out: RAR α Kd
T4 sequence (P10276 1-462): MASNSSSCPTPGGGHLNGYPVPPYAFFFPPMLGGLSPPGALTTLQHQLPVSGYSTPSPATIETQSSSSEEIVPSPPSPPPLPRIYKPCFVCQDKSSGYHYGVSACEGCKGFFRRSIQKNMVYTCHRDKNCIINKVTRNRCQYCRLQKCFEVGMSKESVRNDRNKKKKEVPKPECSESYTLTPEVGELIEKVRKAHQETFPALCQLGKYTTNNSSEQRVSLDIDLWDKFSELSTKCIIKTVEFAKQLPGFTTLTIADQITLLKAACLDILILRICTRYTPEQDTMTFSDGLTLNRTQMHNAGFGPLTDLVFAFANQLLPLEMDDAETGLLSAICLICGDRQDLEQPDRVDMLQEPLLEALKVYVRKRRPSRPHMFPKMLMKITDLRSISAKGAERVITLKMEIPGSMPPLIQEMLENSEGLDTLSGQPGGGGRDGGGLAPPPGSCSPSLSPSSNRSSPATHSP
Excerpt: as §1
as §3, with “The results obtained in this assay are expressed in EC50 numbers, as they are also in the chimeric receptor transactivation assay. The results of ligand binding assay are expressed in Kd numbers. (See Cheng et al. Biochemical Pharmacology Vol. 22 pp 3099-3108, expressly incorporated herein by reference.)” left out

RAR γ (EFFICACY) (RARγ) | RAR α (EFFICACY) (RARα [1]) | RAR β (EFFICACY) (RARβ) | Kd (RARα [2]) [µM] | Compound
(52) | (28) | (54) | – | CN(C1CC1)C1CCC(C)(C)c2cc(C#Cc3ccc(C(=O)O)cc3)ccc21 (stereo not drawn) [Compound 3, 4-[(5-Cyclopropyl-methyl-amino)-8,8-dimethyl-5,6,7,8-tetrahydro-naphthalene-2yl-ethynyl]-benzoic acid]
– | – | (36) | – | CC1(C)CCC(=O)c2ccc(C#Cc3ccc(CC(=O)O)cc3)cc21 [Compound 5, 4-[(8,8-Dimethyl-5-oxo-5,6,7,8-tetrahydro-naphthalene-2-yl-ethynyl)-phenyl]-acetic acid]
– | – | (96) | – | CN(C1CC1)C1CCC(C)(C)c2cc(C#Cc3ccc(CC(=O)O)cc3)ccc21 (stereo not drawn) [Compound 8, 4-[(5-(Cyclopropyl-methyl-amino)-8,8-dimethyl-5,6,7,8-tetrahydro-naphthalene-2-yl-ethynyl)-phenyl]-acetic acid]
(94) | (146) | (86) | – | CC1(C)CCC(=O)c2ccc(C#Cc3ccc(C(=O)O)c(F)c3)cc21 [Compound 10, 2-Fluoro-4-(818-dimethyl-5-oxo-5,6,7,8-tetrahydro-naphthalen-2yl-ethynyl)-benzoic acid]
(9) | – | (6.6) | – | CN(C1CC1)C1CCC(C)(C)c2cc(C#Cc3ccc(C(=O)O)c(F)c3)ccc21 (stereo not drawn) [Compound 13, 4-[5-(Cyclopropyl-methyl-amino)-8,8-dimethyl-5,6,7.8-tetrahydro-naphthalene-2-yl-ethynyl]-2-fluoro benzoic acid]
(140) | (207) | (126) | – | CC1(C)CC2(CC2)Oc2ccc(C#Cc3ccc(C(=O)O)cc3)cc21 [Compound 40, Benzoic acid, 4-[(3,4-dihydro-4,4-dimethylspiro[2H-1-benzopyran-2,1′-cyclopropane]-6-yl)ethynyl]-]
(116) | (138) | (100) | – | CC1(C)CC2(CC2)Oc2ccc(C#Cc3ccc(C(=O)O)c(F)c3)cc21 [Compound 44, 2-Fluoro-benzoic acid, 4-[(3,4-dihydro-4,4-dimethylspiro[2H-1-benzopyran-2,1′-cyclopropane]-6-yl)ethynyl]-]
(65) | (60) | (77) | – | Cc1cc(C#Cc2ccc(C(=O)O)cc2)ccc1C1(OC(C)C)CC1 [Compound 85, 4-[4-(1-Isopropoxycyclopropyl)-3-methyl-phenylethynyl]-benzoic acid]

The next lines start with the molecule.

Compound | RAR γ (EFFICACY) (RARγ) | RAR α (EFFICACY) (RARα [1]) | RAR β (EFFICACY) (RARβ) | Kd (RARα [2]) [µM]
CC1(C)CC(C)(C)c2cc(C(=O)Oc3ccc(CC(=O)O)cc3)ccc2O1 [Compound 46, 2,2,4,4-Tetramethyl-chroman-6-carboxylic acid 4-(carboxymethyl)phenyl ester] | – | – | – | > 10
COC1(c2ccc(C#Cc3ccc(C(=O)O)cc3)cc2)CC1 [Compound 69, 4-[4-(1-Methoxycyclopropyl)-phenylethynyl]-benzoic acid] | (31) | (10) | (50) | –
CC(C)OC1(c2ccc(C#Cc3ccc(C(=O)O)cc3)cc2)CC1 [Compound 73, 4-[4-(1-Isopropoxycyclopropyl)-phenylethynyl]-benzoic acid] | (24) | – | (39) | –
Cc1cc(C#Cc2ccc(C(=O)O)cc2)ccc1C1(OCc2ccccc2)CC1 [Compound 81, 4-[4-(1-Benzyloxycyclopropyl)-3-methyl-phenylethynyl]-benzoic acid] | (67) | – | (80) | –
Cc1cc(C#Cc2ccc(C(=O)O)cc2)ccc1C1(OCC(C)(C)C)CC1 [Compound 89, 4-[4-[1-(2,2-Dimethylpropyloxy)-cyclopropyl]-3-methyl-phenylethynyl]-benzoic acid] | (46) | (20) | (50) | –
CCc1cc(C#Cc2ccc(C(=O)O)cc2)ccc1C1(OCc2ccccc2)CC1 [Compound 93, 4-[4-(1-Benzyloxycyclopropyl)-3-ethyl-phenylethynyl]-benzoic acid] | (55) | (114) | (39) | –
CCCNC1(c2ccc(C#Cc3ccc(C(=O)O)cc3)cc2)CC1 [Compound 108, 4-[4-(1-Propylamino-cyclopropyl)-phenylethynyl]-benzoic acid] | (10) | (15) | (36) | –
CCCN(CCC)C1(c2ccc(C#Cc3ccc(C(=O)O)cc3)cc2)CC1 [Compound 110, 4-[4-(1-Dipropylamino-cyclopropyl)-phenylethynyl]-benzoic acid] | (42) | – | (44) | –
O=C(O)c1ccc(C#Cc2ccc(C3(NCc4ccccc4)CC3)cc2)cc1 [Compound 112, 4-[4-(1-Benzylamino-cyclopropyl)-phenylethynyl]-benzoic acid] | – | – | (37) | –
